Test results: US20230119833A1, “NMR METHODS FOR CHARACTERIZING IRON SUCROSE” (Amphastar Pharmaceuticals, Inc., priority 2020, published 2023)

Assay: 13C NMR peak width at half-height (PWHH) and relative PWHH of sucrose peaks, Example 1
Type: physicochemical
Details: for PWHH, three lots mean, Average: average of the twelve 13C peaks
Experimental: In Example 1, ^13C NMR was performed on three (3) samples (e.g 3 lots) of a comparator iron sucrose drug product having an equivalent concentration of 20 mg base/mL, and three (3) samples (e.g 3 lots) of a tested iron sucrose drug product having an equivalent concentration of 20 mg base/mL were analyzed by ^13C NMR in Example 1. The comparator product was Venofer® having an equivalent concentration of 20 mg base/mL. In addition, ^13C NMR was also performed on 3 samples (e.g. 3 lots) of free sucrose sample. Free sucrose is sucrose only with no iron.
The average PWHH of the 3 lots of the comparator iron sucrose drug product is identified as w in Tables 1 and 2. The average PWHH of the 3 lots of the tested iron sucrose drug productis identified as w in Tables 1 and 2. The average PWHH of the 3 lots of sucrose only sample is identified as w0 in Tables 1 and 2.
In addition to PWHH, a RPWHH is another characterization method disclosed herein. […] As provided in Table 1, the RPWHH averaged among the twelve (12) C peaks and the 3 lots for: (i) w1/wo is 8.5 f 1.0, and (ii) w2/wo is 7.9±1.1.

PWHH, three lots mean (13C Peak No. 1, 106.0 ppm, Fructose, Carbon Atom No. 8): 10.6 ppb
PWHH, three lots mean (13C Peak No. 2, 95.0 ppm, Glucose, Carbon Atom No. 1): 14.7 ppb
PWHH, three lots mean (13C Peak No. 3, 84.0 ppm, Fructose, Carbon Atom No. 11): 13.4 ppb
PWHH, three lots mean (13C Peak No. 4, 79.0 ppm, Fructose, Carbon Atom No. 9): 16.3 ppb
PWHH, three lots mean (13C Peak No. 5, 76.0 ppm, Fructose, Carbon Atom No. 10): 15.8 ppb
PWHH, three lots mean (13C Peak No. 6, 75.4 ppm, Glucose, Carbon Atom No. 3): 14.3 ppb
PWHH, three lots mean (13C Peak No. 7, 75.2 ppm, Glucose, Carbon Atom No. 5): 14.9 ppb
PWHH, three lots mean (13C Peak No. 8, 73.9 ppm, Glucose, Carbon Atom No. 2): 15.7 ppb
PWHH, three lots mean (13C Peak No. 9, 72.0 ppm, Glucose, Carbon Atom No. 4): 13.7 ppb
PWHH, three lots mean (13C Peak No. 10, 65.2 ppm, Fructose, Carbon Atom No. 7): 16.2 ppb
PWHH, three lots mean (13C Peak No. 11, 64.1 ppm, Fructose, Carbon Atom No. 12): 17.6 ppb
PWHH, three lots mean (13C Peak No. 12, 62.9 ppm, Glucose, Carbon Atom No. 6): 17.2 ppb
PWHH, three lots mean, Average: 15.0 ppb
PWHH, three lots mean, Average (listed as w0): 15±2 ppb
Compound: OC[C@H]1O[C@@](CO)(O[C@H]2O[C@H](CO)[C@@H](O)[C@H](O)[C@H]2O)[C@@H](O)[C@@H]1O [Sucrose Only, sucrose]
